From patent US20240366589A1, “NHE3-BINDING COMPOUNDS AND METHODS FOR INHIBITING PHOSPHATE TRANSPORT” (Ardelyx, Inc., priority 2013, published 2024)

Assays:
[1] = biological target: NHE-1 (Homo sapiens, UniProt P19634); test: NHE isoform inhibition, Table 2 adapted from Masereel et al.: NHE-1, species not marked; assay type: biochemical; conditions: from Table 2 values
Description: Shown below are examples of various NHE binding small molecules and their selectivity across the NHE-1, -2 and -3 isoforms. (See, e.g., B. Masereel et al., An Overview of Inhibitors of Na+/H+ Exchanger, European J. of Med. Chem., 38, pp. 547-554 (2003), the entire contents of which is incorporated by reference here for all relevant and consistent purposes). […] It is thus possible to engineer NHE3 binding selectivity into a chemical series optimized for potency against another antiporter isoform; that is, the inhibitor classes exemplified in the art may be suitably modified for activity and selectivity against NHE3 (or alternatively NHE-2 and/or NHE-8), as well as being optionally modified to be rendered substantially impermeable or substantially systemically non-bioavailable.

[2] = biological target: T1, NHE-2 (Rattus norvegicus, UniProt P48763); conditions: * = from rat; read-out: IC50 or Ki NHE-2; cited from earlier work
T1 sequence (P48763 1-813): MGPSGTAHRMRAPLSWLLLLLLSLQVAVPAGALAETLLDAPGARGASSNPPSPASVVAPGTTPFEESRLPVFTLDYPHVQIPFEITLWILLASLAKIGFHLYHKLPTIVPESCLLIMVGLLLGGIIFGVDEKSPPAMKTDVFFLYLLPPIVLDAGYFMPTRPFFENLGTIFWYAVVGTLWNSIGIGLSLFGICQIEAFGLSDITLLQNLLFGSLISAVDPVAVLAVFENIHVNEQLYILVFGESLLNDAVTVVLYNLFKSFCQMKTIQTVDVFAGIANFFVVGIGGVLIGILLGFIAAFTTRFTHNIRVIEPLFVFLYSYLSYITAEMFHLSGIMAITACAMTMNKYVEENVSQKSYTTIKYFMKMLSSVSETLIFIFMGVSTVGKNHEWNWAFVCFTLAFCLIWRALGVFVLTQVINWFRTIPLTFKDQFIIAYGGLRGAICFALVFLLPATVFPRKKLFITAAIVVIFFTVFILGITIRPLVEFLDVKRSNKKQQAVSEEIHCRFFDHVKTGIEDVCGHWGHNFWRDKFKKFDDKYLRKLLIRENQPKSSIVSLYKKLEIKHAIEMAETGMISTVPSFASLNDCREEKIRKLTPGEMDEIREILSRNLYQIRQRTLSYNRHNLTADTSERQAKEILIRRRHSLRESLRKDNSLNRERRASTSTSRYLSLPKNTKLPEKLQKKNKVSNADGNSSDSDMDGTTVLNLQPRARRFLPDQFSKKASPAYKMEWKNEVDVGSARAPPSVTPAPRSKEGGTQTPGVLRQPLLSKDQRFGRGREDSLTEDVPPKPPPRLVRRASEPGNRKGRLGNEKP

Chain of NHE-1 (P19634 whole entry, species assumed, canonical isoform): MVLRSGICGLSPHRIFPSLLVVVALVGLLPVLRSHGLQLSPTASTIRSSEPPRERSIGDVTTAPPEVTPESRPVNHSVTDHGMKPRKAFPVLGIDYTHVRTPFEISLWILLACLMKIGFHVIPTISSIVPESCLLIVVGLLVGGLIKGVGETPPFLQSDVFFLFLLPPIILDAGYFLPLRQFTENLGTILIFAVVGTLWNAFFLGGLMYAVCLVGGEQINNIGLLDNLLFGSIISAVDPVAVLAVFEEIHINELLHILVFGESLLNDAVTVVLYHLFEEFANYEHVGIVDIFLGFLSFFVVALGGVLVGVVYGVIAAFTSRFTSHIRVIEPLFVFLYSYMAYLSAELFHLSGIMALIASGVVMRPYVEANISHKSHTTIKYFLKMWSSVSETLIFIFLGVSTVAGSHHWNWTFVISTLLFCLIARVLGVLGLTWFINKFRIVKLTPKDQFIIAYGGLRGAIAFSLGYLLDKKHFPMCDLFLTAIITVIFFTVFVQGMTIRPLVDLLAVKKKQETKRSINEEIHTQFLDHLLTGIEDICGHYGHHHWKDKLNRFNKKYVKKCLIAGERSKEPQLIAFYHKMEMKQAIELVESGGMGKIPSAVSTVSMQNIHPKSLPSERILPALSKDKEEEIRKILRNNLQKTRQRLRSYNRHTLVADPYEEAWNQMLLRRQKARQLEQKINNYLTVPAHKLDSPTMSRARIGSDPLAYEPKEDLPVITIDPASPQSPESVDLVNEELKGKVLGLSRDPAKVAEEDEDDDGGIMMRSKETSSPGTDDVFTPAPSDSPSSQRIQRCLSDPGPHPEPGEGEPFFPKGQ

SMILES: C/C(=C\c1cc(C)ccc1/C=C(\C)C(=O)NC(=N)N)C(=O)N=C(N)N [S-3226]
- selectivity: more active against NHE-1 than NHE3 [1]: selectivity is reversed

SMILES: CCN(c1nc(N)c(C(=O)NC(=N)N)nc1Cl)C(C)C [EIPA, ethyl isopropyl amiloride]
- IC50 [2]: 80 nM

SMILES: C/C(=C\c1cccc(/C=C(\C)C(=O)NC(=N)N)c1)C(=O)N=C(N)N [S-2120]
- selectivity: more active against NHE-1 than NHE3 [1]: over 500 fold
